{
  "source": "patent US11807624B2",
  "about": "“Substituted pyrimidinones as agonists of the APJ receptor” (AMGEN INC., priority 2018, dated 2023)",
  "note": "pEC50: −log10 of the molar value.",
  "data": [
    {"target": "human AT1R receptor expressed in the CHO cell line (Homo sapiens (Human), UniProt P30556)", "sequence (P30556 whole entry)": "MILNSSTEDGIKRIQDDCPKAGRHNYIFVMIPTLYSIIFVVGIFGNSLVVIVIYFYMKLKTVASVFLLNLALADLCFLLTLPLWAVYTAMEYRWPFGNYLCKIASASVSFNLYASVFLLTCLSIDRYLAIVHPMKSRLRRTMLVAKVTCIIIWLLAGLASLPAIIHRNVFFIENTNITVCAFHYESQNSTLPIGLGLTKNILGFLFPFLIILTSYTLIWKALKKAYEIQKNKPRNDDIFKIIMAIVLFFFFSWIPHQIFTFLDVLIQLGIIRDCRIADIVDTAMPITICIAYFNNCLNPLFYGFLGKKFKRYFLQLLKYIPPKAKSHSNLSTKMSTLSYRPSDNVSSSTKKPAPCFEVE", "assay": "not given", "conditions": "AT1R expressed alone, no APJ expression", "values": [
      {"molecule": "pyr apelin-13", "cooperativity on AngII-induced IP1 response": "no positive cooperativity observed"}
    ]},
    {"target": "human APJ receptor (Homo sapiens (Human), UniProt P35414)", "sequence (P35414 whole entry)": "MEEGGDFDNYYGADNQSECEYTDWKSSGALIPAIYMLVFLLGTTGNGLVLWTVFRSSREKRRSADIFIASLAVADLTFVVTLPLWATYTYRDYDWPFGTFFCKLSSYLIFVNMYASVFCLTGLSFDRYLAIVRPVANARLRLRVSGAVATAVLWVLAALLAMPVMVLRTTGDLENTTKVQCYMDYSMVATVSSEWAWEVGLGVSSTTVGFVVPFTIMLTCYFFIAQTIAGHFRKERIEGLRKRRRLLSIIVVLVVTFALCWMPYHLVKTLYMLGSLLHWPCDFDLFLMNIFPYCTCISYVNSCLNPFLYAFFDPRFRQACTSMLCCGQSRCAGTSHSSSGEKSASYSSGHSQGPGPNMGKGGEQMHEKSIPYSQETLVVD", "assay": "[35S]GTPγS binding assay (hAPJ SPA)", "format": "biochemical", "conditions": "membranes from CHO cells stably expressing human APJ receptor, read-out: Activity hAPJ SPA EC50 IP", "procedure": "[^35S]GTPγS Binding The human APJ receptor was cloned by polymerase chain reaction and the gene encoding the receptor was subcloned in pFLAG-CMV™-3 expression vector (Sigma, Saint Louis, Mo. USA) in-house at Amgen. A GTPγS binding assay was performed on membranes prepared from CHO cells stably expressing human APJ receptor. The optimum experimental conditions for the concentrations of GDP, MgCl2, and NaCl in the assay buffer were initially determined. […] Incubation was at RT for 90 min and the microplate was read using a ViewLux™ ultra HTS Microplate Imager (PerkinElmer, Inc.). All the results presented are means of several independent experiments and analyzed by non-linear regression methods using the commercially available program Prism (GraphPad, San Diego, Calif.) providing the EC50 values detailed in Table 3.", "values": [
      {"molecule": "CCCCc1nc(O)c(NS(=O)(=O)Cc2ccccc2)c(=O)n1-c1c(OC)cccc1OC", "note": "[Example 4.3, N-(2-butyl-1-(2,6-dimethoxyphenyl)-4-hydroxy-6-oxo-1,6-dihydropyrimidin-5-yl)-1-phenylmethanesulfonamidesulfonamide]", "pEC50": 6.71},
      {"molecule": "CCCCc1nc(O)c(NS(=O)(=O)[C@H]2CCCN(c3ncc(F)cn3)C2)c(=O)n1-c1c(OC)cccc1OC", "note": "(single isomer, unassigned) [Example 4.7, (S)-N-(2-butyl-1-(2,6-dimethoxyphenyl)-4-hydroxy-6-oxo-1,6-dihydropyrimidin-5-yl)-1-(5-fluoropyrimidin-2-yl)piperidine-3-sulfonamide or (R)-N-(2-butyl-1-(2,6-dimethoxyphenyl)-4-hydroxy-6-oxo-1,6-dihydropyrimidin-5-yl)-1-(5-fluoropyrimidin-2-yl)piperidine-3-sulfonamide]", "pEC50": 7.11},
      {"molecule": "CCCCc1nc(O)c(NS(=O)(=O)CCc2ccccc2)c(=O)n1-c1c(OC)cccc1OC", "note": "[Example 4.4b, N-(2-butyl-1-(2,6-dimethoxyphenyl)-4-hydroxy-6-oxo-1,6-dihydropyrimidin-5-yl)-2-phenylethane-1-sulfonamide]", "pEC50": 6.71},
      {"molecule": "COc1cccc(OC)c1-n1c(C2CCCC2)nc(O)c(NS(=O)(=O)CCc2ncc(F)cn2)c1=O", "note": "[Example 4.17, N-[2-cyclopentyl-1-(2,6-dimethoxyphenyl)-4-hydroxy-6-oxo-pyrimidin-5-yl]-2-(5-fluoropyrimidin-2-yl)ethanesulfonamide]", "pEC50": 8.55},
      {"molecule": "CCCCc1nc(O)c(NS(=O)(=O)C[C@@H](C)c2ncc(F)cn2)c(=O)n1-c1c(OC)cccc1OC", "note": "(single isomer, unassigned) [Example 4.6, (S)-N-(2-butyl-1-(2,6-dimethoxyphenyl)-4-hydroxy-6-oxo-1,6-dihydropyrimidin-5-yl)-2-(5-fluoropyrimidin-2-yl)propane-1-sulfonamide or (R)-N-(2-butyl-1-(2,6-dimethoxyphenyl)-4-hydroxy-6-oxo-1,6-dihydropyrimidin-5-yl)-2-(5-fluoropyrimidin-2-yl)propane-1-sulfonamide]", "pEC50": 7.70},
      {"molecule": "CCCCc1nc(O)c(NS(=O)(=O)CCc2ncc(F)cn2)c(=O)n1-c1c(OC)cccc1OC", "note": "[Example 4.0, N-(2-Butyl-1-(2,6-dimethoxyphenyl)-4-hydroxy-6-oxo-1,6-dihydropyrimidin-5-yl)-2-(5-fluoropyrimidin-2-yl)ethane-1-sulfonamide]", "pEC50": 7.52},
      {"molecule": "CCCCc1nc(O)c(NS(=O)(=O)c2ccccc2)c(=O)n1-c1c(OC)cccc1OC", "note": "[Example 4.4a, N-(2-butyl-1-(2,6-dimethoxyphenyl)-4-hydroxy-6-oxo-1,6-dihydropyrimidin-5-yl)benzenesulfonamide]", "pEC50": 6.61},
      {"molecule": "CCCCc1nc(O)c(NS(=O)(=O)C[C@H](C)c2ncc(F)cn2)c(=O)n1-c1c(OC)cccc1OC", "note": "(single isomer, unassigned) [Example 4.5, (R)-N-(2-butyl-1-(2,6-dimethoxyphenyl)-4-hydroxy-6-oxo-1,6-dihydropyrimidin-5-yl)-2-(5-fluoropyrimidin-2-yl)propane-1-sulfonamide or (S)-N-(2-butyl-1-(2,6-dimethoxyphenyl)-4-hydroxy-6-oxo-1,6-dihydropyrimidin-5-yl)-2-(5-fluoropyrimidin-2-yl)propane-1-sulfonamide]", "pEC50": 7.96},
      {"molecule": "CCCCc1nc(O)c(NS(=O)(=O)[C@@H](C)[C@H](C)c2ncc(F)cn2)c(=O)n1-c1c(OC)cccc1OC", "note": "[Example 4.2, (2S,3R)-N-(2-butyl-1-(2,6-dimethoxyphenyl)-4-hydroxy-6-oxo-1,6-dihydropyrimidin-5-yl)-3-(5-fluoropyrimidin-2-yl)butane-2-sulfonamide]", "pEC50": 7.57},
      {"molecule": "COc1cccc(OC)c1-n1c(-c2ccccc2)nc(O)c(NS(=O)(=O)CCc2ncc(F)cn2)c1=O", "note": "[Example 4.24, N-[1-(2,6-dimethoxyphenyl)-4-hydroxy-6-oxo-2-phenyl-pyrimidin-5-yl]-2-(5-fluoropyrimidin-2-yl)ethanesulfonamide]", "pEC50": 8.82},
      {"molecule": "CCCCc1nc(O)c(NS(=O)(=O)[C@@H](C)[C@H](OC)c2ncc(C)cn2)c(=O)n1-c1c(OC)cccc1OC", "note": "[Example 4.8, (1R,2S)-N-(2-butyl-1-(2,6-dimethoxyphenyl)-4-hydroxy-6-oxo-1,6-dihydropyrimidin-5-yl)-1-methoxy-1-(5-methylpyrimidin-2-yl)propane-2-sulfonamide]", "pEC50": 7.07},
      {"molecule": "CCCCc1nc(O)c(NS(=O)(=O)C2CCCCC2)c(=O)n1-c1c(OC)cccc1OC", "note": "[Example 4.9, N-(2-butyl-1-(2,6-dimethoxyphenyl)-4-hydroxy-6-oxo-1,6-dihydro-5-pyrimidinyl)cyclohexanesulfonamide]", "pEC50": 6.71},
      {"molecule": "CCCCc1nc(O)c(NS(=O)(=O)C(C)C)c(=O)n1-c1c(OC)cccc1OC", "note": "[Example 4.1, N-(2-butyl-1-(2,6-dimethoxyphenyl)-4-hydroxy-6-oxo-1,6-dihydropyrimidin-5-yl)propane-2-sulfonamide]", "pEC50": 6.13}
    ]},
    {"tested_on": "heart failure rats", "assay": "Cardiac function in heart failure rats in vivo", "parameters": "species or system rat", "conditions": "captopril alone, acute settings", "description": "The interaction between […] (ACE2) and Apelin biology is complicated. To investigate the interaction between the Apelin-APJ and ACE signalling pathways, we examined the improvement in cardiac function with APJ small molecule agonists in the presence of ACE inhibitor captopril in heart failure rats in vivo. […] However, in the presence of an APJ agonist, there was a shift in potency to the left with marked improvement in contractility and ejection fraction without changes in heart rate. These findings provide a new reference for the understanding of the regulation of ACE2 for the renin angiotensin aldosterone system (RAAS), independent of AT1R signaling and offer new potential drug targets for the treatment of diseases such as hypertension and heart failure. This work clearly establishes that combination of an agonist of the APJ receptor with an ARB such as losartan and/or with an ACE inhibitor such as captopril which may play an important role in providing greater efficacy in treating heart failure patients, for example in improving contractility and ejection fraction without changing the heart rate.", "values": [
      {"molecule": "C[C@H](CS)C(=O)N1CCC[C@H]1C(=O)O", "note": "[Captopril, captopril]", "improvement in contractility or ejection fraction": "does not show a marked improvement in contractility or ejection fraction acutely"}
    ]},
    {"tested_on": "isolated cardiomyocyctes", "assay": "not given", "conditions": "isolated cardiomyocytes, exogenous apelin; cited from earlier work", "values": [
      {"molecule": "apelin", "increase in sarcomere shortening": "up to 140%"}
    ]},
    {"target": "human APJ-AT1R (angiotensin Type 1) double stable CHO cell line (Homo sapiens (Human), UniProt P35414)", "sequence (P35414 whole entry)": "as above", "assay": "IP1 accumulation (TR-FRET), APJ-AT1R double stable CHO cell line", "format": "cell-based", "conditions": "in the presence of AngII and APJ small molecule agonists", "method": "Single and double stable recombinant cell lines were generated for human APJ and the AT1R receptor in CHO K1 cells tagged either with FLAG or hemagglutinin (HA) tag. Briefly, the CHO-K1 APJ/AT1R cells were seeded in culture medium of DMEM-F12 and 10% FBS at a density of 15 k/well in a 96 well plate overnight. The next day, the culture medium was replaced with medium containing no serum for 4 hours. The compound AngII at a range of concentrations (1 pM-10 μM) with or without different concentrations of APJ agonists were diluted in stimulation buffer and added to the cell plate. The plate was sealed and incubated for 1 hour. This was followed by addition of IP-d2 conjugate followed by europium cryptate antibody conjugate into the wells. The plate was sealed, followed with incubation for 2 hours at RT. Time-resolved fluorescence resonance energy (TR-FRET) at 620 nm and 665 nm was measured after 2 horns with an Envision reader. The signal ratios and delta F were calculated and the amount of IP1 produced was inversely proportional to the TR-FRET ratio, 665/620 nm.", "values": [
      {"molecule": "CCCCc1nc(Cl)c(CO)n1Cc1ccc(-c2ccccc2-c2nn[nH]n2)cc1", "note": "[losartan]", "effect of AT1R blockade on APJ agonist-induced cooperativity": "relieved this cooperativity and resulted in synergistic effects of enhancing the efficacy of the APJ receptor"}
    ]}
  ]
}
